The record followed here is US6013672A, “Agonists of metabotropic glutamate receptors and uses thereof” (UAB Research Foundation, priority 1997, dated 2000).

Read-outs that look alike come from different tables or passages of the source. Where only a bound is given, the exact number is not on record here.

Series [1] deals with hippocampal astrocytes. Nature of the series: Intracellular glutamate content [Glu]i of astrocytes. The class given is cell-based, rat. The settings on record: 70 minutes incubation with 500 μM. Here is the method:
For experiments in which [Glu]o concentrations were assessed by the bioluminescence method, cells were maintained in glutamate-depleted medium in the presence or absence of the agonists/antagonist combination of interest. […] After the incubation period, the stimulation media (containing drugs of interest) were aspirated and cells were washed twice with MEM and allowed to remain for 30 to 60 minutes in drug free MEM supplemented with 20 mM glucose prior to taking media samples for glutamate measurements. To assess acute drug effects, untreated cells were washed and the reagent of interest applied in glucose supplemented MEM. Cells were harvested in 0.3 N NaOH and neutralized with 0.3 N HCl. Aliquots were stored in -20° C. for protein and [Glu]i determination. Glutamate standards used for calibration were prepared in MEM (For [Glu]i in 0.15 N NaCl).

Series [2] has as its system hippocampal astrocytes. Nature of the series: Extracellular glutamate [Glu]o released by astrocyte cultures (bioluminescence). The class given is cell-based, rat. The settings on record: for order of potency in mimicking ACPD effect on glutamate release: FIG. 7B; for effect on [Glu]o / glutamate release: cells treated for 24 hours, then MEM; for antagonism of ACPD effects on [Glu]o: applied simultaneously with ACPD; for antagonism of the effect of L-CCG-I on [Glu]o: data not shown; for effect on [Glu]o when Na+ gradient is disrupted: 1.0 mM Ouabain, 1.0/5.0 mM L-AA, 30 minute treatment.

Series [3] relates to hippocampal astrocytes. Nature of the series: 3H-D-aspartate (glutamate/aspartate) uptake in astrocytes. The class given is cell-based, rat. The note with it: for effect on aspartate uptake: KA or NMDA 1 mM, 24 hours. The method, then: Uptake procedures were essentially identical to those previously described (Kimelberg et al. 1989; Ye et al., 1996). Briefly, 5-10 minutes before assessing uptake, astrocytes were washed and kept in a solution containing (in mM): NaCl 122, KCl 3, MgSO4 0.4, KH2 PO4 1.2, NaHCO3 25, D-glucose 10, and CaCl2 1.3, at 37° C., bubbled with 5%/95% CO2 /O2. Then the cells were switched to the above solution supplemented with 0.1 mM D-aspartate and 0.4 μCi/ml ^3 H-D-aspartate. Glutamate/aspartate uptake was determined over a 10 or 30 minutes period and was terminated by three quick washes, twice with ice cold 0.29 M sucrose solution with 10 mM Tris Nitrate, 0.5 mM Ca(NO3)2, (pH 7.40 by NaOH) and then with ice cold PBS. Cells were then harvested after a 30 minute incubation in 0.3 N NaOH solution (37° C.) and ^3 H activity was determined in a liquid scintillation counter (Beckman). Total uptake was normalized to protein content to eliminate variability due to cell number. Protein levels were determined using the bicinchoninic acid (BCA) assay (Pierce; Rockford, Ill.).

In the next series the test system is glial cells. Nature of the series: Glial glutamate uptake and extracellular glutamate with MPTP/MPP+ and t-ACPD. The format is cell-based. The settings on record: for elevations of extracellular glutamate levels: glial cells. The method, then:
The normally low glutamate levels in the brain are established and maintained in glial cells by non-vesicular uptake of glutamate through a Na^+ -dependent transporter (FIG. 14). Once taken up, glutamate can be converted to glutamine and recycled for neurotransmitter synthesis in neurons (FIG. 14). If glial cells in culture are exposed to high glutamate concentrations (e.g., 100 μM), they will remove it from the extracellular space and essentially "detoxify" the neuronal environment. […] Under those conditions, extracellular glutamate levels are elevated to 7 μM (FIG. 16), which is toxic to most surrounding neurons.
Impaired glial glutamate transport may contribute to the loss of dopaminergic neurons in Parkinson's disease. Thus, stimulation of this pathway would be neuroprotective. A drug and its receptor on glial cells was identified that allows enhanced glutamate detoxification. Specifically, trans-ACPD (trans-1-amino-1,3-cyclopentane dicarboxylic acid) (t-ACPD), a group II metabotropic glutamate receptor agonist, enhanced glial glutamate uptake (FIG. 17). It's actions were 2-fold; (i) it enhanced glutamate uptake by up to 80%, and (ii) it decreased non-specific release of glutamate, effectively trapping glutamate inside glial cells. In fact, the release of glutamate decreased to such a large extent that it almost made the transporter rectify, e.g. allowing only influx and preventing outflow of glutamate (FIG. 18). […] Using antibodies and further pharmacological studies, the receptor that is responsible for these effects has been identified as mGluR2/3.
In Parkinson's disease, it is believed that neurons may die of excitotoxic exposure to glutamate. The present invention determined that MPTP directly effects glutamate uptake into astrocytes (FIG. 21, top left). […] This increased release may be sufficient to explain some of the subsequent neurodegeneration.

A further series has as its system dopaminergic neurons. Nature of the series: Cell death of dopaminergic neurons induced by glutamate or MPTP. The format is cell-based, rat. The note with it: 0.2 mM. The method, then:
Cell death of dopaminergic neurons induced by glutamate, and the role of glial glutamate transport in protection of cell death at the cellular level were studied as it relates to Parkinson's disease. […] Thus, glutamate concentrations as low as 3-5 μM induced rapid cell death (FIGS. 11 and 12). Glutamate concentrations were also measured in the normal brain. They are typically around 1 μM, below the toxic level for dopaminergic neurons. […] This late onset of glutamate toxicity is compatible with the late onset of Parkinson's disease.

Setting [4] is: co-incubation, Forskolin 10 μM, Db-cAMP 0.2 mM.

As for `O=C(O)[C@@H]1CN[C@@H](C(=O)O)C1` (relative stereo) [PDC, 1-trans-pyrrolidine-2,4,-dicarboxylate], in the series with hippocampal astrocytes [1], the cellular glutamate content is 102.9±12.1 % of control.
Regarding `N[C@H](C(=O)O)[C@H](O)C(=O)O` (relative stereo) [THA, DL-threo-β-hydroxyaspartate], the “glutamate release induced by transportable uptake inhibitor” value with hippocampal astrocytes [2] (5-2000 μM in glutamate free MEM, 25 and 70 minutes) was “increased glutamate release from astrocytes in a dose- and time-dependent manner”. Moreover, the minimal effective concentration in the series with hippocampal astrocytes [2] (Rattus norvegicus, Astrocyte, glutamate free MEM, read-out: concentration giving significant increases in glutamate release) was above 100 µM. Besides, in the series on hippocampal astrocytes [1] (Rattus norvegicus, Astrocyte, 70 min, read-out: cellular glutamate content), the activity at 500 µM worked out at 110 ± 14.7%.
Regarding `N[C@@]1(C(=O)O)CC[C@H](C(=O)O)C1` [1S3S-ACPD, (1S,3S)-1-aminocyclopentane-1,3-dicarboxylic acid], in the series on hippocampal astrocytes [2], the “order of potency in mimicking ACPD effect on glutamate release” value (shortened to “order of potency”) was “S-4CPG>1S3R-ACPD>L-CCG-I>1S3S-ACPD=QA” and the “effect on [Glu]o / glutamate release” value was “reduce [Glu]o in a dose-dependent manner”.
With `N[C@@]1(C(=O)O)CC[C@@H](C(=O)O)C1` [ACPD], the “persistence of effects (FIG. 6 Off curve)” value with hippocampal astrocytes [2] is “over 10 hours”. For the same compound, the “preincubation time for maximal effect (FIG. 6 On curve)” value in the series with hippocampal astrocytes [2] was above 6 h. In the series on hippocampal astrocytes [2] (10 hours after ACPD had been washed off), the “effect remaining after washout” value is listed as 50%. In the series on hippocampal astrocytes [2] (24 hours treatment, then ACPD free glutamate-depleted medium), the “time for effect to return to control levels after washout” value was “about 20 hours”. In addition, the “reduction in the steady-state [Glu]o” value in the series with hippocampal astrocytes [2] (astrocytes cultured from animals >P10, on average) was “≈ 5 fold”; in the series on hippocampal astrocytes [2] (astrocytes cultured from younger animals) it was 30-50%. Also, the “ACPD modulation of [Glu]o under disrupted Na+ gradient” value in the series on hippocampal astrocytes [2] (low Na+/high K+, Ouabain or L-AA) is “failed to modulate [Glu]o”. Besides, the “dose required for enhancement of uptake” value in the series with hippocampal astrocytes [3] is listed as “≈ 500 μM”. Also, in the series with hippocampal astrocytes [3] (acute application of up to 3 hours), the “acute effect on uptake” value is “ineffective in enhancing uptake”. Besides, the enhancement of uptake is 35.2%±3.8% in the series on hippocampal astrocytes [3] (astrocytes from animals >P9, n=11) and 24.5%±2.4% in the series on hippocampal astrocytes [3] (astrocytes from neonatal rat pups, n=14). Also, in the series with hippocampal astrocytes [3] (hippocampal and spinal cord astrocytes), the “enhancement of uptake by region” value is listed as “significant enhancement of uptake”.
In the case of `N[C@H](C(=O)O)c1cc(O)cc(O)c1` [DHPG, (S)-3,5-dihydroxyphenylglycine], the “effect on [Glu]o / glutamate release” value in the series on hippocampal astrocytes [2] is given as “ineffective”.
Regarding `CCCC(=O)Nc1ncnc2c1ncn2[C@@H]1O[C@@H]2COP(=O)(O)O[C@H]2[C@H]1OC(=O)CCC` [Db-cAMP, Dibutylyl-cAMP], in the series with hippocampal astrocytes [2] (setting [4]), the “effect on ACPD effects on [Glu]o” value is “neither blocked nor facilitated the ACPD effects on [Glu]o”. The “effect on [Glu]o alone” value in the series with hippocampal astrocytes [2] (up to highest concentration tested, 3 mM) was “did not significantly change [Glu]o”.
As for `CC[C@](N)(CCC(=O)O)C(=O)O` [EGLU, (2S)-α-Ethylglutamic acid], in the series with hippocampal astrocytes [2], the “antagonism of ACPD effects on [Glu]o” value is “unable to suppress ACPD effects on [Glu]o” and the “antagonism of the effect of L-CCG-I on [Glu]o” value is “failed to inhibit the effect of other mGluR agonists”.
Consider `C=C[C@@]1(C)CC(=O)[C@]2(O)[C@@]3(C)[C@@H](O)CCC(C)(C)[C@@H]3[C@H](O)[C@H](OC(C)=O)[C@@]2(C)O1` [Forskolin], for which the “effect on ACPD effects on [Glu]o” value in the series with hippocampal astrocytes [2] (setting [4]) is “neither blocked nor facilitated the ACPD effects on [Glu]o”.
`C=C(C)[C@H]1CN[C@H](C(=O)O)[C@H]1CC(=O)O` [KA]: the “effect on [Glu]o / glutamate release” value with hippocampal astrocytes [2] is “ineffective”. Moreover, the “effect on aspartate uptake” value with hippocampal astrocytes [3] is “No significant effects”.
Regarding `N[C@@H](CCCC(=O)O)C(=O)O` [L-AA, L-aminoadipic acid], the “effect on [Glu]o when Na+ gradient is disrupted” value in the series with hippocampal astrocytes [2] was “elevated [Glu]o”.
As to `N[C@@H](CCP(=O)(O)O)C(=O)O` [L-AP4, L(+)-2-amino-4-phosphonobutyric acid], in the series on hippocampal astrocytes [2], the “effect on [Glu]o / glutamate release” value was “ineffective”.
With `N[C@H](C(=O)O)[C@H]1C[C@@H]1C(=O)O` [L-CCG-I, (2S,3S,4S)-2-(carboxycyclopropyl) glycine], in the series on hippocampal astrocytes [2], the “order of potency” value was “S-4CPG>1S3R-ACPD>L-CCG-I>1S3S-ACPD=QA” and the “effect on [Glu]o / glutamate release” value was “reduce [Glu]o in a dose-dependent manner”.
As for `N[C@@H](CS(=O)O)C(=O)O` [L-CSA, L-cystein-sulfinic acid], the “effect on [Glu]o / glutamate release” value in the series with hippocampal astrocytes [2] is reported as “ineffective”.
For the compound `C[C@@](N)(C(=O)O)[C@H]1C[C@@H]1C(=O)O` [MCCG, (2S,3S,4S)-2-methyl-2-(carboxycyclopropyl)glycine], in the series on hippocampal astrocytes [2], the “antagonism of ACPD effects on [Glu]o” value was “unable to suppress ACPD effects on [Glu]o” and the “antagonism of the effect of L-CCG-I on [Glu]o” value is given as “failed to inhibit the effect of other mGluR agonists”.
`C[C@@](N)(C(=O)O)c1ccc(C(=O)O)cc1` [MCPG, (S)-α-methyl-4-carboxyphenylglycine]: in the series on hippocampal astrocytes [2], the “antagonism of ACPD effects on [Glu]o” value was “unable to suppress ACPD effects on [Glu]o” and the “antagonism of the effect of L-CCG-I on [Glu]o” value was “failed to inhibit the effect of other mGluR agonists”.
Consider `C[n+]1ccc(-c2ccccc2)cc1` [MPP^+, 1-methyl-4-phenylpyridinium], for which, in the series on glial cells, the “extracellular glutamate levels elevated to” value was found to be 7 µM and the “elevations of extracellular glutamate levels” value was “up to 5 fold”.
Regarding `CN1CC=C(c2ccccc2)CC1` [MPTP, 1-methyl-4-phenyl-1-1,2,3,6-tetrahydropyridine], in the series with dopaminergic neurons, the neuronal cell death entry is on record as “wide-spread cell death within less than 24 hours”. Besides, in the series with glial cells, the “ability of glial cells to detoxify glutamate” value is listed as “compromised in a dose dependent manner”, the “extracellular glutamate levels elevated to” value came to 7 µM and the “elevations of extracellular glutamate levels” value is “up to 5 fold”.
Regarding `CN[C@H](CC(=O)O)C(=O)O` [NMDA], the “effect on [Glu]o / glutamate release” value in the series with hippocampal astrocytes [2] was “ineffective”. Moreover, in the series with hippocampal astrocytes [3], the “effect on aspartate uptake” value was “No significant effects”.
With `C[C@@H]1O[C@@H](O[C@H]2C[C@@H](O)[C@]3(CO)[C@H]4[C@H](O)C[C@]5(C)[C@@H](C6=CC(=O)OC6)CC[C@]5(O)[C@@H]4CC[C@]3(O)C2)[C@H](O)[C@H](O)[C@H]1O` [Ouabain], the “effect on [Glu]o when Na+ gradient is disrupted” value with hippocampal astrocytes [2] is “elevated [Glu]o”.
Take `N[C@@H](Cn1oc(=O)[nH]c1=O)C(=O)O` [QA, Quisqualic acid]: in the series on hippocampal astrocytes [2], the “order of potency” value is listed as “S-4CPG>1S3R-ACPD>L-CCG-I>1S3S-ACPD=QA” and the “effect on [Glu]o / glutamate release” value is “reduce [Glu]o in a dose-dependent manner”.
`N[C@H](C(=O)O)c1ccc(C(=O)O)cc1` [S-4CPG, (S)-4-carboxyphenylglycine]: in the series on hippocampal astrocytes [2], the “order of potency” value was “S-4CPG>1S3R-ACPD>L-CCG-I>1S3S-ACPD=QA” and the “effect on [Glu]o / glutamate release” value was “reduce [Glu]o in a dose-dependent manner”.
Consider `C[C@@H]1C[C@@H]([C@H](O)CC2CC(=O)NC(=O)C2)C(=O)[C@@H](C)C1` [cycloheximade, cycloheximide], for which, in the series on hippocampal astrocytes [2] (2 μg/ml), the “effect on ACPD induced attenuation of [Glu]o” value is “could not inhibit the ACPD induced attenuation of [Giu]o”.
cholera toxin: in the series with hippocampal astrocytes [2], the “effect on ACPD effects on [Glu]o” value is “neither inhibited nor mimicked ACPD effects”.
On to pertussis toxin, for which the “inhibition of ACPD modulation of [Glu]o” value in the series with hippocampal astrocytes [2] (0.01-500 ng/ml added 6 hours prior to ACPD) was “failed to inhibit ACPD modulation”. Besides, the “reversal of ACPD modulation of [Glu]o” value in the series with hippocampal astrocytes [2] (applied after ACPD had been washed off) is on record as “failed to reverse the modulatory effects of ACPD”.
